# Data taken from article PMC11352039, “Isolation and Characterization of Antioxidant Peptides from Dairy Cow (Bos taurus) Placenta and Their Antioxidant Activities” (Antioxidants, 2024).
# Like-named read-outs stand apart in the source and are kept apart here.
# Legend:
# RAW264.7 cells [1] = settings: MTS; for cell survival rate: mean ± SD
# Experimental: RAW264.7 cells were cultured in a 5% CO2 environment at 37 °C using a specific complete medium (DMEM (PM150210) + 10% FBS (164210-50) + 1%P/S (PB180120)) designed for RAW264.7 cells. Cells in the logarithmic growth phase were harvested and seeded into 96-well plates at a density of 1 × 10^5 cells/mL per well with 100 μL of inoculation volume. Subsequently, the plates were pre-cultured for 12 h at 37 °C in a 5% CO2 atmosphere, following which the medium was removed.
# The pre-cultured RAW264.7 cells were then divided into control (C) and model (M) groups. Then, 100 μL of complete medium was added to group C, and 100 μL of complete medium containing concentrations of 250, 300, 350, 400, and 450 μmol/L H2O2 was added to group M. After continuing the incubation for 6 h, the medium was discarded. Cell viability was assessed using the MTS method. The optimal H2O2 concentration for inducing the oxidative stress model was determined when cell viability decreased to 50%, ensuring that the cells maintained a specific viability level while meeting the damage criteria.
# [2] = cited from earlier work; for DPPH free-radical scavenging IC50: AOPs from skipjack tuna protein extract
# Source text: The virtual screening method, employing peptide affinity for Keap1 as a screening parameter, exclusively confirms the capability of CP1 to activate the Keap1/Nrf2 pathway. On the other hand, the chromatographic method, utilizing the free-radical scavenging rate as a screening metric, solely validates the ability of CP2 to scavenge free radicals. […] The chemical method for evaluating AOP antioxidant activity can be categorized into two main types: hydrogen atom transfer and electron transfer. In assays such as hydroxyl and DPPH radical scavenging, AOP transforms free radicals into anions via electron transfer. Moreover, in the lipid peroxidation inhibition assay, AOP hinders lipid peroxidation by releasing hydrogen atoms, thereby deactivating free radicals.
# [3] = cited from earlier work
# Source text: AOP antioxidant activity is primarily assessed through chemical and cell modeling methods. The chemical method for evaluating AOP antioxidant activity can be categorized into two main types: hydrogen atom transfer and electron transfer. In assays such as hydroxyl and DPPH radical scavenging, AOP transforms free radicals into anions via electron transfer. Moreover, in the lipid peroxidation inhibition assay, AOP hinders lipid peroxidation by releasing hydrogen atoms, thereby deactivating free radicals.
# RAW264.7 cells [4] = assay: Survival of normal cells (MTS); assay type: cell-based; settings: 24 h
# Experimental: Pre-cultured RAW264.7 cells were allocated into groups C, CP1, and CP2. Group C received 100 μL of complete medium, while groups CP1 and CP2 were supplemented with 100 μL of complete medium containing CP1 and CP2, respectively, at final concentrations of 1.25, 2.5, 5, 10, 20, and 40 μg/mL. The cells were then incubated for 24 h before discarding the medium. Cell viability was assessed using the MTS method to identify non-toxic concentration ranges for subsequent experiments.
# [5] = Antioxidant stability under simulated digestion; assay type: in vitro ADME; settings: simulated GI (gastrointestinal) digestion versus G digestion; not significant (p > 0.05)
# Source text: We refer to Chai et al. and Gallego et al. methods to evaluate the antioxidant stability of AOPs at different temperatures, pH levels, and simulated digestion conditions.
compound,measurement,setting,value
"OO [Peptide H2O2, hydrogen peroxide]",cell activity,"RAW264.7 cells [1]; RAW264.7, 200 μmol/L H2O2, 6 h",exceeded 90%
same,cell survival rate,"RAW264.7 cells [1]; RAW264.7, 250 μmol/L H2O2, 6 h",83.51 ± 6.15%
same,cell survival rate,"RAW264.7 cells [1]; RAW264.7, 300 μmol/L H2O2, 6 h",79.06 ± 3.21%
same,cell survival rate,"RAW264.7 cells [1]; RAW264.7, 350 μmol/L H2O2, 6 h",64.73 ± 0.99%
same,cell survival rate,"RAW264.7 cells [1]; RAW264.7, 400 μmol/L H2O2, 6 h",48.68 ± 5.48%
same,cell survival rate,"RAW264.7 cells [1]; RAW264.7, 450 μmol/L H2O2, 6 h",26.10 ± 1.65%
"EVGK [duck blood AOP, literature]",DPPH radical scavenging rate,"[2]; 0.5 mg/mL, duck blood AOP",26.63%
same,transition metal chelation rate,"[3]; 0.5 mg/mL, duck blood AOP",16.35%
H-ANNGKQWAEVF-OH [CP1],cell viability of normal cells versus group C,"RAW264.7 cells [4]; RAW264.7, 40.00 μg/mL",significantly lower than that of group C
same,cell viability of normal cells versus group C,"RAW264.7 cells [4]; RAW264.7, 1.25 to 20.00 μg/mL",did not show a significant difference compared to group C
same,reduction of free-radical scavenging rate,[5],38.64%
H-QPGLPGPAG-OH [CP2],cell viability of normal cells versus group C,"RAW264.7 cells [4]; RAW264.7, 40.00 μg/mL",significantly lower than that of group C
same,cell viability of normal cells versus group C,"RAW264.7 cells [4]; RAW264.7, 1.25 to 20.00 μg/mL",did not show a significant difference compared to group C
same,reduction of free-radical scavenging rate,[5],34.01%
"LCGEC [tuna AOP, literature]",DPPH radical scavenging rate,"[2]; 1 mg/mL, tuna AOP",16.83%
same,"DPPH radical scavenging rate, IC50",[2]; tuna AOP,exceeded 10 mg/mL
"QAEP [AOP from skipjack tuna protein extract, literature]",DPPH free-radical scavenging IC50,[2],1110 µg/mL
"QEAE [AOP from skipjack tuna protein extract, literature]",DPPH free-radical scavenging IC50,[2],1770 µg/mL
YFLWP,IC50 DPPH radical scavenging,[2]; yellow croaker AOP,1590 µg/mL
same,IC50 hydroxyl radical scavenging,[3]; yellow croaker AOP,2470 µg/mL
"YGPEP [sheepskin AOP, literature]",IC50 lipid peroxidation inhibition rate,[3]; sheepskin AOP,3940 µg/mL
